“And” between values parts separate entries of the source, which are not always exact repeats. Identical values can stand only once. Like-named read-outs stand apart in the source and are kept apart here.
Assay: Single dose oral PK study in male Sprague Dawley rats (plasma by LC-MS/MS)
Type: in vivo
Details: for AUC(0-inf) / AUC(0-t) / half-life / Cmax / MRT last: po; for AUC(0-inf): read-out: AUCinf of PRX-P5-006; for AUC(0-t): read-out: AUClast of PRX-P5-006; for half-life: read-out: T1/2 of PRX-P5-006 (converted); for MRT last: read-out: MRTlast of PRX-P5-006
Experimental: We describe here PK results of prodrugs of PRX-002 (−) or (+) isomers. All doses of prodrugs were administered such that they were equivalent to 5 mg/kg of PRX-002 (−) or (+) for oral studies and 2 mg/kg PRX-002 (−) or (+) for intravenous studies in male Sprague-Dawley (MSD) rats. Higher doses of up to 10 or 15 mg/kg [again equivalent to PRX-002 (−)] were used in some studies (as specified)]. Formulation preparation, dose administration and time of sample collection was as follows.
Test item was weighed [5 mg equivalent dose of PRX-002 for prodrugs] and transferred to a graduated tube. Then 10 μL of Tween 80 was added and vortexed mixed until the test item was completely mixed. Small volume of 0.5% (w/v) carboxymethylcellulose in water solution was then added dropwise with continuous vortex mixing until a uniform suspension was obtained. The final volume was then made up to 10 mL with 0.5% (w/v) carboxymethylcellulose in water with final strength of 0.5 mg/mL. […] This formulation was freshly prepared before the administration to animals.
(§1) Adult male Sprague Dawley Rats aged 8-10 weeks were used for the study. Fasted animals were administered test item by oral route with a dose of 5 mg/kg body weight at dose volume of 10 mL/kg body weight. Under mild isoflurane anesthesia, blood specimens were collected by retro-orbital puncture method using capillary tubes into pre-labeled tubes containing anticoagulant (K2EDTA-2 mg/mL blood) during the next 24 hours of post dose as mentioned in below table. For blood sampling at multiple time points, right and left eyes were used alternatively for blood collection. Collected blood specimens were centrifuged at 4000 rpm, 4° C. for 10 minutes and plasma were separated and stored at −80° C. until analysis.
Blood was collected as outlined in Table 39.1 (oral).
(§2) Test item PRX-P4-003 was weighed and transferred to a graduated tube. Then 12.42 μL of Tween 80 was added and vortexed mixed until the test item was completely mixed. Small volume of 0.5% (w/v) Carboxymethylcellulose in water solution was then added dropwise with continuous vortex mixing until a uniform suspension was obtained. The final volume was then made up to 12.42 mL with 0.5% (w/v) Carboxymethylcellulose in water with final strength of 1.0 mgA/mL. […] This formulation was freshly prepared before the administration to animals.
as §1, with “with a PRX-P4-003” for “test item”, “10” for “5”
as §2, with “PRX-P5-006” for “PRX-P4-003”, “10” for “12.42”, “3.97 mg/mL.” for “1.0 mgA/mL.”
Adult male Sprague Dawley Rats aged 8-10 weeks were used for the study. Fasted animals were administered with a PRX-P5-006 by oral route with a dose of 15 mg/kg body weight at dose volume of 10 mL/kg body weight. […]

[1] = PRX-P5-006 oral 5 mg/kg b.w., individual animals, 5 mg/kg
[2] = PRX-P5-006 oral 5 mg/kg, mean, 5 mg/kg
[3] = male, Sprague Dawley, rat, in vivo, 5 mg/kg, PRX-P5-006 oral 5 mg/kg, mean
[4] = male, Sprague-Dawley, rat, in vivo, 5 mg/kg, PRX-P5-006 oral 5 mg/kg b.w., individual animals

SMILES: CCCCCCCCCCCCCCCCCC(=O)OC(C)OC(=O)N(CC)C1C2CCC(C2)C1c1ccccc1 (single isomer, unassigned) [PRX-P5-006, N-(1-Octadecanoyloxyethoxycarbonyl)-(−)-N-ethyl-3-phenylbicyclo[2.2.1]heptan-2-amine]
- AUC% extrap of PRX-P5-006 [1]: 62.02% and 50.02% and 31.64%
- AUCinf of PRX-P5-006 [1]: 132.93 ng·h/mL and 88.37 ng·h/mL
- AUClast of PRX-P5-006 [1]: 66.44 ng·h/mL and 60.40 ng·h/mL
- Cmax of PRX-P5-006 [1]: 72.65 ng/mL and 67.85 ng/mL
- MRTlast of PRX-P5-006 [1]: 1.05 h
- T1/2 of PRX-P5-006 [1]: 3.31 h and 1.91 h
- AUC% extrap of PRX-P5-006 [2]: 47.896 ± 15.3010% and 47.896%
- T1/2 of PRX-P5-006 [2]: 2.907 h
- AUC(0-inf) [3]: 115 ± 23.3 ng·h/mL
- AUC(0-t) [3]: 57.8 ± 10.2 ng·h/mL
- half-life [3]: 2.91 ± 0.865 h
- Cmax (male, Sprague Dawley, rat, in vivo, 15 mg/kg, oral 15 mg/kg (footnote *), analyte: prodrug in plasma, mean, read-out: Oral PK Parameters Cmax, Prodrug): 81.6 ± 42.2 ng/mL
- Tmax (male, Sprague Dawley, rat, in vivo, oral 5 mg/kg [equivalent to PRX-002 (−)], analyte: prodrug in plasma, mean, read-out: Oral PK Parameters Tmax, Prodrug): 0 h
- AUC (male, Sprague Dawley, rat, in vivo, oral 15 mg/kg (footnote *), analyte: prodrug in plasma, mean, read-out: Oral PK Parameters AUC, Prodrug): 477 ± 54.4 ng·h/mL
- Tmax (male, Sprague Dawley, rat, in vivo, oral 15 mg/kg (footnote *), analyte: prodrug in plasma, mean, read-out: Oral PK Parameters Tmax, Prodrug): 0.8 ± 0.3 h
- AUC(0-inf) [4]: 123 ng·h/mL
- AUC(0-t) [4]: 46.6 ng·h/mL
- Cmax (male, Sprague-Dawley, rat, in vivo, 5 mg/kg, PRX-P5-006 oral 5 mg/kg b.w., individual animals, read-out: Cmax of PRX-P5-006): 43.9 ng/mL
- MRT last [4]: 1.1 h
- half-life [4]: 3.5 h
- Cmax (male, Sprague-Dawley, rat, in vivo, 5 mg/kg, PRX-P5-006 oral 5 mg/kg, mean, read-out: Cmax of PRX-P5-006): 61.5 ± 15.4 ng/mL
- MRT last (male, Sprague-Dawley, rat, in vivo, 5 mg/kg, PRX-P5-006 oral 5 mg/kg, mean): 1.07 ± 0.025 h
- Tmax (male, Sprague-Dawley, rat, in vivo, PRX-P5-006 oral 5 mg/kg, mean, read-out: Tmax of PRX-P5-006): 1 h

SMILES: CCCCCCCCCCCCCCCCCC(=O)OC(C)OC(=O)N(CC)C1C2CCC(C2)C1c1ccccc1 (single isomer, unassigned) [PRX-P5-011, N-(1-Octadecanoyloxyethoxycarbonyl)-(+)-N-ethyl-3-phenylbicyclo[2.2.1]heptan-2-amine]
- Plasma concentration of PRX-P5-011 (PRX-P5-011 oral (5 mg/kg equivalent), 0.00 h, individual animals): 0.00 ng/mL
- Plasma concentration of PRX-P5-011 (PRX-P5-011 oral (5 mg/kg equivalent), 0.00 h, mean): 0.000 ng/mL
- Plasma concentration of PRX-P5-011 (PRX-P5-011 oral (5 mg/kg equivalent), 0.08 h, individual animals): 0.00 ng/mL
- Plasma concentration of PRX-P5-011 (PRX-P5-011 oral (5 mg/kg equivalent), 0.08 h, mean): 0.000 ng/mL
- Plasma concentration of PRX-P5-011 (PRX-P5-011 oral (5 mg/kg equivalent), 0.25 h, individual animals): 0.00 ng/mL
- Plasma concentration of PRX-P5-011 (PRX-P5-011 oral (5 mg/kg equivalent), 0.25 h, mean): 0.000 ng/mL
- Plasma concentration of PRX-P5-011 (PRX-P5-011 oral (5 mg/kg equivalent), 0.50 h, individual animals): 0.00 ng/mL
- Plasma concentration of PRX-P5-011 (PRX-P5-011 oral (5 mg/kg equivalent), 0.50 h, mean): 0.000 ng/mL
- Plasma concentration of PRX-P5-011 (PRX-P5-011 oral (5 mg/kg equivalent), 1.00 h, individual animals): 0.00 ng/mL
- Plasma concentration of PRX-P5-011 (PRX-P5-011 oral (5 mg/kg equivalent), 1.00 h, mean): 0.000 ng/mL
- Plasma concentration of PRX-P5-011 (PRX-P5-011 oral (5 mg/kg equivalent), 2.00 h, individual animals): 0.00 ng/mL
- Plasma concentration of PRX-P5-011 (PRX-P5-011 oral (5 mg/kg equivalent), 2.00 h, mean): 0.000 ng/mL
- Plasma concentration of PRX-P5-011 (PRX-P5-011 oral (5 mg/kg equivalent), 4.00 h, individual animals): 0.00 ng/mL
- Plasma concentration of PRX-P5-011 (PRX-P5-011 oral (5 mg/kg equivalent), 4.00 h, mean): 0.000 ng/mL
- Plasma concentration of PRX-P5-011 (PRX-P5-011 oral (5 mg/kg equivalent), 6.00 h, individual animals): 0.00 ng/mL
- Plasma concentration of PRX-P5-011 (PRX-P5-011 oral (5 mg/kg equivalent), 6.00 h, mean): 0.000 ng/mL
- Plasma concentration of PRX-P5-011 (PRX-P5-011 oral (5 mg/kg equivalent), 24.00 h, individual animals): 0.00 ng/mL
- Plasma concentration of PRX-P5-011 (PRX-P5-011 oral (5 mg/kg equivalent), 24.00 h, mean): 0.000 ng/mL
- Active compound PRX-002 (+) in plasma (PRX-P5-011 oral administration): not detected
- concentration at 0 h (male, Sprague-Dawley, rat, in vivo, PRX-P5-011 oral (5 mg/kg equivalent), 0.00 h, individual animals, read-out: Plasma concentration of PRX-P5-011): 0 ng/mL
- concentration at 0.08 h (male, Sprague-Dawley, rat, in vivo, PRX-P5-011 oral (5 mg/kg equivalent), 0.08 h, individual animals, read-out: Plasma concentration of PRX-P5-011): 0 ng/mL
- concentration at 0.25 h (male, Sprague-Dawley, rat, in vivo, PRX-P5-011 oral (5 mg/kg equivalent), 0.25 h, individual animals, read-out: Plasma concentration of PRX-P5-011): 0 ng/mL
- concentration at 0.5 h (male, Sprague-Dawley, rat, in vivo, PRX-P5-011 oral (5 mg/kg equivalent), 0.50 h, individual animals, read-out: Plasma concentration of PRX-P5-011): 0 ng/mL
- concentration at 1 h (male, Sprague-Dawley, rat, in vivo, PRX-P5-011 oral (5 mg/kg equivalent), 1.00 h, individual animals, read-out: Plasma concentration of PRX-P5-011): 0 ng/mL
- concentration at 2 h (male, Sprague-Dawley, rat, in vivo, PRX-P5-011 oral (5 mg/kg equivalent), 2.00 h, individual animals, read-out: Plasma concentration of PRX-P5-011): 0 ng/mL
- concentration at 4 h (male, Sprague-Dawley, rat, in vivo, PRX-P5-011 oral (5 mg/kg equivalent), 4.00 h, individual animals, read-out: Plasma concentration of PRX-P5-011): 0 ng/mL
- concentration at 6 h (male, Sprague-Dawley, rat, in vivo, PRX-P5-011 oral (5 mg/kg equivalent), 6.00 h, individual animals, read-out: Plasma concentration of PRX-P5-011): 0 ng/mL
- concentration at 24 h (male, Sprague-Dawley, rat, in vivo, PRX-P5-011 oral (5 mg/kg equivalent), 24.00 h, individual animals, read-out: Plasma concentration of PRX-P5-011): 0 ng/mL
- Oral PK Parameters Tmax, Prodrug (oral 5 mg/kg [equivalent to PRX-002 (−)], analyte: prodrug in plasma, mean): 0 h
